Entries after “also recorded” stand apart in the source; their conditions may differ. Read-outs that look alike come from different tables or passages of the source.
Experiments:
[1] = test system: primary mouse embryonic fibroblasts (MEF); type: cell-based; details: for SA-β-gal expression induced by methamphetamine: methamphetamine 1 mM; for amphetamine-induced inflammation and senescence: measured by beta-galactosidase assay, crystal violet morphology, and gene expression of pro-inflammatory and pro-senescence genes
Procedure: Detection of senescence-associated β-galactosidase staining was performed as previously reported. Briefly, we plated MEFs on Lab-Tek chamber slides at a density of 5×10^4 cells per chamber. Next day, cells were treated with the indicated dose of drug for 48 hours. Cells were washed twice with PBS and fixed in 2% formaldehyde/0.2% glutaraldehyde for five minutes at room temperature. After two PBS washes the slides were incubated with fresh β-galactosidase stain solution (1 mg/mL 5-bromo-4-chloro-3-indoyl β-D-galactoside (X-Gal) 40 mM sodium phosphate, pH 6.0, 5 mM potassium ferrocyanide, 5 mM potassium ferricyanide, 150 mM NaCl, and 2 mM MgCl2) at 37° C. for 12-16 hours. Slides were washed with PBS and mounted with DAPI containing media. Images were taken for the β-gal staining and overlapped with fluorescent images taken of the same region to count the number of cells staining positive for β-gal (Nikon Eclipse E600). More than 200 cells from 5 different regions of a slide were counted in a blind fashion.

[2] = test system: primary mouse embryonic fibroblasts (MEF); type: cell-based; details: for ceramide (d18:1/16:0) content: incubation of MEF with the drug alone
Procedure: (§1) Cells were washed with ice-cold phosphate-buffered saline (PBS) and scraped into 0.5 ml of methanol/water (1:1, vol:vol) containing the internal standards listed below. Protein concentrations were measured using the BCA protein assay (Pierce, Rockford, Ill., USA). Lipids were extracted with chloroform/methanol (2:1, vol:vol; 1.0 mL). The organic phases were collected, dried under nitrogen and dissolved in methanol for LC/MS analyses.
(§2) Helium was used as collision gas. […] Mobile phase composition was as described above.
(§3) Mouse embryonic fibroblasts (MEFs) were prepared from mice embryo as previously reported. Briefly, pregnant mice at day 13 post coitum were sacrificed and the uteri were dissected out. Each embryo was separated from the placenta and the head and visceral tissues were removed. The remaining body was minced in PBS and incubated with 0.1 mM trypsin/1 mM EDTA at 37° C. for 15 min. Two volumes of Dulbecco's Modified Eagle Medium (DMEM) containing 10% fetal bovine serum (FBS) was added and stood for 5 minutes to settle down large pieces of unbroken tissues. The supernatant was then removed and centrifuged at 200×g for 5 min and suspended in fresh DMEM containing 10% FBS. Cells were cultured at 37° C. with 5% CO2.

[3] = test system: isolated mitochondria from primary MEF; assay: Lipid analysis of isolated mitochondria from MEF; type: cell-based, mouse; details: isolated mitochondria from primary MEF; inhibitor 30 μM
Procedure: as §1, §2, §3

[4] = test system: primary mouse embryonic fibroblasts (MEF); assay: Gene expression in MEF; type: cell-based; details: MEF; co-administration with methamphetamine
Procedure: Total RNA was extracted from frozen tissues using TRIzol reagent (Invitrogen, Carlsbad, Calif.) and was purified with the RNeasy mini kit (Qiagen, Valencia, Calif.). First-strand complementary DNAs were synthesized using SuperScript II RNaseH reverse transcriptase (Invitrogen). Reverse transcription of total RNA (2 μg) was carried out using oligo(dT)12-18 primers for 50 min at 42° C. mRNA levels were measured by quantitative real-time polymerase chain reaction (RT-PCR) with a Mx 3000P system (Stratagene, La Jolla, Calif.). The following list of primers and fluorogenic probes purchased from Applied Biosystems (TaqMan Gene Expression Assays, Foster City, Calif.): Ceramide Synthase 1 (Rn01420081_m1), Ceramide Synthase 2 (Rn01762789_m1), Ceramide Synthase 4 (Rn01767402_m1), Ceramide Synthase 5 (Rn01532864_m1), Ceramide Synthase 6 (Rn01270930_m1), Interleukin-6 (Rn01410330_m1). mRNA levels were normalized using beta actin, 18S ribosomal protein or glyceraldehyde-3-phosphate dehydrogenase as internal standards. Additional PCR primers were designed using Primer 3 (https://www.Frodo.wit.mit.edu), and the sequences are shown in S.Table XXX.
as §3

[5] = test system: ceramide content and IL-6 and p21 mRNA; assay: Acute experiment in mice: methamphetamine alone or in combination with L-CS; details: methamphetamine in combination with L-CS
[6] = Methamphetamine self-administration in rats: self-administration, body weight, body temperature, food intake; type: in vivo, rat
Procedure: Each experimental group was divided into two subgroups that were tested simultaneously. One subgroup served as yoked controls and passively received an injection of saline (which was not contingent on responding) each time a response-contingent injection of 0.1 mg/kg methamphetamine was actively self-administered by the first subgroup of rats. […] The first experimental groups consisted of 12 rats self-administering methamphetamine and 6 yoked control rats. The second experimental group consisted of 9 rats self-administering methamphetamine and 9 yoked control rats. The third experimental group consisted of 16 rats self-administering methamphetamine and 8 yoked control rats. […] The pretreatment with L-CS was always given immediately before and after each session and the catheter was flushed with 0.5 ml of saline afterwards. Before and after sessions 4 and 5 animals received dose 10 mg/kg of L-CS and before and after sessions 6, 7, and 8 they received dose 20 mg/kg of L-CS. The animals received total dose 160 mg/kg of L-CS during the experiment. In this group, we also measured three times the rectal temperature. The first measurement was done one the day before the experiment began at 2 pm, the second measurement was done at 2 pm before the eighth session, and the third measurement immediately after the eighth session.
Eight consecutive 15-hour sessions were conducted between 4 p.m. and 8 a.m. Rats and the food in the feeders were weighed before the start of each session. At the start of each session, a white house light was turned on and a priming injection of 0.1 mg/kg methamphetamine (or saline for yoked group), sufficient to fill the “dead” space of the IV catheter, was automatically delivered. Rats learned to self-administer methamphetamine under one-response, fixed ratio schedule (FRI) of i.v. methamphetamine injection with 30-s time-out duration. Each nose-poke response in the active hole (FRI) produced a delivery of an i.v. injection of 0.1 mg/kg of methamphetamine followed by 30-s timeout period, during which the chamber was dark and responses in either hole had no programmed consequences.

[7] = test system: de novo ceramide biosynthesis; assay: Methamphetamine self-administration in rats: lipidomic analysis of tissues by LC/MS; details: 8 days self-administration; L-CS i.v. from 4 days into the study (10 then 20 mg/kg before and after sessions)
Procedure: Male Sprague-Dawley rats (Charles River, Wilmington, Mass.), weighing approximately 360-440 g at the beginning of the self-administration experiment, were individually housed in a temperature- and humidity-controlled environment under a reversed lighting 12-h light/dark cycle (lights on at 7:00 p.m.). The rats were allowed free access to food (NIH07 biscuits) in their home cage throughout the study. Water was available ad libitum in the home cage and in the testing chamber. Rats were tested in the light phase. They were experimentally and drug naïve at the beginning of this study.
Each of eighteen standard operant-conditioning chambers (Coulbourn Instruments, Lehigh Valley, Pa.) contained a white house light and two holes with nose-poke operanda on either side of a food trough. Upon activation, each nose poke produced a brief feedback tone. […] The tubing was attached to a syringe pump (Harvard Apparatus, South Natick, Mass.), which was programmed to deliver 2-s injections. The injected volume was adjusted for every animal to deliver a methamphetamine dose of 0.1 mg/kg/injection. Experimental events were controlled by microcomputers using MED Associates interfaces and software (Med Associates Inc., East Fairfield, Vt.).
Silastic catheter was implanted into the external jugular vein under anesthesia with a mixture of ketamine and xylazine (60 and 10 mg/kg i.p., respectively). Catheter exited the skin behind the ear. After catheter implantation, a nylon bolt glued to an acrylic mesh was implanted subcutaneously in the midscapular region. The nylon bolt served as a tether, preventing the catheter from being pulled out during self-administration sessions. Following surgery, the IV catheter was flushed daily during the first week with 0.2-0.3 ml of solution containing cephalosporin (100 mg/ml; Cefazolin For Injection, USP; Hospira Inc., Lake Forest, Ill., USA) and then flushed before and after each daily session with saline to maintain its patency) and then flushed after each daily session with saline to maintain its patency.
Each experimental group was divided into two subgroups that were tested simultaneously. One subgroup served as yoked controls and passively received an injection of saline (which was not contingent on responding) each time a response-contingent injection of 0.1 mg/kg methamphetamine was actively self-administered by the first subgroup of rats. […] The first experimental groups consisted of 12 rats self-administering methamphetamine and 6 yoked control rats. The second experimental group consisted of 9 rats self-administering methamphetamine and 9 yoked control rats. The third experimental group consisted of 16 rats self-administering methamphetamine and 8 yoked control rats. […] The pretreatment with L-CS was always given immediately before and after each session and the catheter was flushed with 0.5 ml of saline afterwards. Before and after sessions 4 and 5 animals received dose 10 mg/kg of L-CS and before and after sessions 6, 7, and 8 they received dose 20 mg/kg of L-CS. The animals received total dose 160 mg/kg of L-CS during the experiment.
Eight consecutive 15-hour sessions were conducted between 4 p.m. and 8 a.m. Rats and the food in the feeders were weighed before the start of each session. At the start of each session, a white house light was turned on and a priming injection of 0.1 mg/kg methamphetamine (or saline for yoked group), sufficient to fill the “dead” space of the IV catheter, was automatically delivered. Rats learned to self-administer methamphetamine under one-response, fixed ratio schedule (FRI) of i.v. methamphetamine injection with 30-s time-out duration.

[8] = test system: primary mouse embryonic fibroblasts (MEF); assay: ROS production in MEF (CM-H2DCFDA); type: cell-based; details: CYP inhibitors with methamphetamine
Procedure: Production of ROS was measured using the fluorescent probe CM-H2DCFDA (Invitrogen). This carboxy derivative of fluorescein carries additional negative charges that improve its retention compared to noncarboxylated forms. For these experiments, MEFs were grown in DMEM without phenol red, for which anti-oxidative properties have been reported. Cells were plated to subconfluence in 12-well plates, washed 3 times with pre-warmed PBS and loaded for 30 min at 37° C./5% CO2 with […] CM-H2DCFDA in DMEM without phenol red (loading medium). Then the loading medium was removed and pre-warmed fresh medium containing the different CYP450 inhibitors in presence or absence of methamphetamine was added. Fluorescence (excitation at 485 nm, emission at 530 nm) was analyzed immediately, cells were incubated at 37° C./5% CO2, and fluorescence was analyzed at the indicated time points. ROS rate versus control (%) was calculated subtracting the percentage of ROS increasing from time zero in the methamphetamine-treated samples to the percentage of ROS increasing from time zero in vehicle-treated samples.

Molecule: CCCC[C@@H](C)[C@@H](OC(=O)C[C@@H](CC(=O)O)C(=O)O)[C@H](C[C@@H](C)C[C@H](O)CCCC[C@@H](O)C[C@H](O)[C@H](C)N)OC(=O)C[C@@H](CC(=O)O)C(=O)O [Fumonisin B1]
- expression of SA-β-gal by the cell-permeable ceramide analog C8 ([1]; C8 in presence of L-CS or FB1): neither L-CS nor FB1 blocked
- SA-β-gal expression induced by methamphetamine ([1]; inhibitor 50 μM): suppressed

Molecule: CCCCc1ccc(N=CNO)c(C)c1 [HET-0016]
- ceramide formation in D-meth-treated cells ([2]; MEF, inhibitors each at 10 μM): ineffective

Molecule: N[C@H]1CONC1=O [L-cycloserine]
- methamphetamine induced increases in ceramide ([2]; primary MEF, inhibitor 30 μM): able to block
- methamphetamine induced increases in ceramide [3]: able to block
- methamphetamine-induced increase in the transcription of IL-6, TNF-alpha, p21 and p53 [4]: blocked
- expression of SA-β-gal by the cell-permeable ceramide analog C8 [1]: neither L-CS nor FB1 blocked
- amphetamine-induced inflammation and senescence [1]: prevent
- SA-β-gal expression induced by methamphetamine ([1]; inhibitor 30 μM): suppressed
- methamphetamine-induced increase of ceramide [5]: block the increase
- methamphetamine-induced reduction of food intake ([6]; L-CS treatment): did not alter
- meth induced changes in body temperature ([6]; L-CS treatment, listed as L-CS): did not alter
- methamphetamine self-administration ([6]; L-CS treatment, listed as L-CS): no effect; also recorded: did not alter
- body weight (wasting phenotype) ([6]; methamphetamine self-administering animals treated with L-CS, listed as L-CS): able to rescue the wasting phenotype; also recorded: corrected the abnormalities in body weight
- methamphetamine induced increases in ceramide content [7]: blocked

Molecule: CN[C@@H](C)Cc1ccccc1.Cl [L-methamphetamine, L-methamphetamine hydrochloride]
- ceramide (d18:1/16:0) content [2]: no such effect

Molecule: CCCC(C(=O)OCCN(CC)CC)(c1ccccc1)c1ccccc1 [SKF-525A]
- ceramide formation in D-meth-treated cells ([2]; MEF, inhibitors each at 10 μM): normalized
- release of ROS evoked by methamphetamine [8]: prevented

Molecule: CN/C(=N/CCSCc1nc[nH]c1C)NC#N [cimetidine]
- ceramide formation in D-meth-treated cells [2]: normalized
- release of ROS evoked by methamphetamine [8]: prevented

Molecule: C[C@H](N)Cc1ccccc1 [d-amphetamine]
- ceramide (d18:1/16:0) content [2]: modest but statistically significant (p<0.014) increase

Molecule: C=C[C@H]1C[N@@]2CC[C@H]1C[C@@H]2[C@@H](O)c1ccnc2ccc(OC)cc12 [quinidine]
- ceramide formation in D-meth-treated cells ([2]; MEF, inhibitors each at 10 μM): normalized
- release of ROS evoked by methamphetamine [8]: prevented

Molecule: O=C1CCC(N2C(=O)c3ccccc3C2=O)C(=O)N1 (stereo not shown) [thalidomide]
- amphetamine-induced inflammation and senescence [1]: prevent

Molecule: TNF-α
- cellular ceramide content ([2]; MEF, TNF-α treatment activating NF-κB): mimic the effects of methamphetamine

Reference: patent publication US20150148387A1, “METHODS OF TREATMENT, DIAGNOSIS AND […] METHA[…] WHICH TARGET CERAMIDE METABOLIC […] AND […] SENESCENCE” (priority 2012, published 2015)
